Results: patent publication US12208085B2, “Pyrazoline-derived compound for use in the prevention and/or treatment of pain and inflammation associated to surgery in mammals” (ECUPHAR NV, priority 2022, dated 2025)

Experiments:
Type in all cases: in vivo
[1] = system: dogs undergoing experimental orthopaedic surgery; assay: Postoperative pain after experimental knee surgery (Maquet Modified Procedure), SFGCPS scoring; conditions: Beagle dogs
Method: The study was performed with 6 clinically healthy Beagle dogs with similar age and weight that were experimentally subjected to knee surgery (repair of cranial cruciate ligament rupture). […] All surgeries were conducted under the same preoperative, intraoperative and postoperative protocols and performed by the same surgeon. A highly standardized surgical technique, Maquet Modified Procedure (MMP) (12) was implemented.
For each dog the study lasted 17 days, including a 7-day acclimatization period. On day D−1 (approximately 24 h before the intervention) the five dogs in the TG received a single oral dose (8 mg/kg) of the TP, the one dog in the CG received a single subcutaneous dose (0.1 mg/kg) of the RP. […] On day D0 all dogs underwent knee surgery in the right knee. From day D1 up to day D10 dogs were closely examined and signs of pain and discomfort were blindly evaluated and rated using the Short Form of the Glasgow Composite Pain Scale (SFGCPS) ranging from 0 to 24 (13 and http://www.newmetrica.com/cmps/). On day D−1 dogs were also examined to rule out signs of pain or discomfort.

[2] = system: dogs undergoing soft tissue surgery; assay: Pilot field trial, postoperative pain and inflammation after elective soft tissue surgery (SFGCMPS, VAS), Placebo control; parameters: SFGCMPS Mobility average value / SFGCMPS Demeanour average value / SFGCMPS Posture/Activity average value / Total SFGCMPS average value / SFGCMPS Vocalization average value / SFGCMPS Attention to wound average value: scale not given here
Source text: The study was a single centre, prospective, parallel-controlled, randomized and blinded pilot field trial with a negative (Placebo) control to evaluate the efficacy of E-6087 in dogs undergoing elective soft tissue surgery.
Twenty dogs (17 females and 3 males) were included in the study. Dogs were of different breeds or crossbreed, ages from 3 months to 7 years and weights from 4 to 34 kg. All dogs were clinically healthy other than the condition causing the animal to go under surgery.
Two days before surgery animals were weighed, a detailed physical examination was performed, and blood samples were collected for routine haematology and biochemistry to confirm the good health status of the animals before inclusion.
Dogs were randomly allocated to receive either E-6087 or Placebo as oral tablets. E-6087 and Placebo tablets were similar (same appearance and packaging), therefore treatment administration, clinical examinations and blood sample analysis was always blind.
E-6087 was administered at the dose of 8 mg/kg on day D−1, approximately 24 h before surgery scheduled time, before the first meal of the day. Placebo tablets were administered following the same posology.
Surgeries were performed in the morning, on day D0 by the Investigator (Surgeon). All surgeries were performed under the same anaesthesia protocol. Premedication was performed with medetomidine and morphine both at 0.1 ml/10 kg followed by anaesthesia maintained with Tiletamine/Zolazepam (Zoletil®). Local anaesthesia was not permitted. At the end of surgery, antibiotic therapy was administered to all dogs following the post-operative protocol stablished: amoxicillin (trihydrate) at 15 mg of amoxicillin/kg bw in a single dose.
Clinical assessments of postoperative pain and inflammation were done by the Investigator (Examining Veterinarian) using the SFGCMPS (13). Visual Analog Scales (VAS) were also used to assess pain at rest and under palpation as well as the level of inflammation.
On D0 at approximately 2 hours before surgery the Examining Veterinarian performed a physical examination and the clinical assessment of pain and inflammation to determine the basal scores. After surgery pain and inflammation were assessed at six examination time points: t1.5 h, t3 h, t5 h (±30 minutes), t8 h (±1 hour), t24 h and t168 (D7), when t0 h corresponded to the end of surgery (extubation).
Clinical assessment of pain and inflammation included assessments of vocalization, attention to wound area, mobility, reaction to pressure at the wound area, general behaviour as well as activity and posture as per SFGCMPS. In addition, pain at rest and after palpation as well as the level of inflammation were assessed at the same time points by VAS ranging from 0 (no pain) to 100 (severe pain manifested by vocalization, aggression, and refusal to allow examination) and from 0 (no inflammation) to 100 (major inflammation as local heat, redness or paresis of the affected area).
Statistical Analysis was performed by use of commercially available software (SigmaPlot for Windows version 13.0). The area under the curve (AUC) was calculated for observable pain during the initial 8 and 24 hours, and it was considered as the primary efficacy variable. All analyses applied a two-sided significance level α=0.05 and a power β=80%. Demographic and baseline data were compared using the Mann-Whitney U test. Gender was compared with the Fisher exact probability test in contingency tables. Efficacy variables were analysed by repeated measures ANOVA.
The foremost surgical procedure was ovariohysterectomy, and this determined that most included animals were females. Sixteen females were ovariohysterectomized. Two males were castrated by cryptorchidectomy. […] All surgeries lasted less than 30 minutes except for one that lasted 54 minutes (perineal hernia).

[3] = system: dogs undergoing orthopaedic surgery; assay: Non-inferiority field study, postoperative pain and inflammation after orthopaedic surgery (SFGCMPS, VAS), meloxicam control
Source text: The study was a non-inferiority, multicentre, prospective, parallel-controlled, randomized and blinded field study.
Thirty-two dogs of different breed, age and weight presenting at the veterinary practice for orthopaedic surgery were included.
Agents with analgesic effect were permitted as premedication. However, intraoperative or postoperative analgesia were not permitted.
For each dog the study lasted twelve days. Two days before surgery, all animals were weighed and underwent a thorough physical examination with clinical pathology to confirm the good health status of the animals before inclusion. Day 0 (D0) was the day dogs underwent surgery and t0 h corresponded to the end of surgery (extubation). The physical examination was repeated on D0, before surgery (t−2 h) and before dispatch (t8 h) and again at t24 h (D1) and t168 (D7) post-surgery. Clinical assessments of pain and inflammation were blindly performed on D0, before surgery (t−2 h) and again at t1.5 h, t3 h, t5 h, t8 h, t24 h (D1) and t168 h (D7) post-surgery. The global efficacy of treatments was assessed on D7. From day D1 to day D7 post-surgery, the owners assessed the dog's wellbeing.
The primary endpoint for efficacy comprises the sum of scores for the SFGCMPS scale, which was assessed at different time points by the Investigator.
From day D1 to D7, owners daily assessed the dogs' wellbeing using scales for: • Demeanour (0=normal; 1=slightly modified; 2=moderately modified; 3=markedly modified and 4=severely modified). • Mobility (0=normal; 1=slightly impaired; 2=moderately impaired; 3=markedly impaired and 4=severely impaired). • Quality of analgesia as very satisfactory (=1); satisfactory (=2); not very satisfactory (=3); not at all satisfactory (=4).
Blood samples were collected from all animals before inclusion (≤D−2), for routine pre-surgery blood profile. Potential adverse effects related to the products were also recorded.
Statistical Analysis was performed by use of commercially available software. All analyses used a two-sided significance level α=0.05. […]

[4] = 8 mg/kg oral D-1, 1.5 h after surgery
[5] = 8 mg/kg oral D-1, 3 h after surgery
[6] = 8 mg/kg oral D-1, 5 h after surgery
[7] = 8 mg/kg oral D-1, 8 h after surgery
[8] = 8 mg/kg oral D-1, 24 h after surgery

NS(=O)(=O)c1ccc(N2N=C(C(F)(F)F)CC2c2ccc(F)cc2F)cc1 (stereo not shown) [E-6087, enflicoxib]
potential adverse effects related to product administration ([1]; single oral dose 8 mg/kg on D-1): No potential adverse effects
need of rescue analgesia ([1]; single oral dose 8 mg/kg on D-1, 10 days follow up): None of the animals needed rescue analgesia
analgesic efficacy in the postoperative period after orthopaedic surgery ([1]; single oral dose 8 mg/kg on D-1, knee surgery D0): effective as analgesic agent
SFGCMPS Attention to wound average value [2, 4]: 0
SFGCMPS Demeanour average value [2, 4]: 0.83
SFGCMPS Mobility average value [2, 4]: 0.33
SFGCMPS Posture/Activity average value [2, 4]: 0.17
SFGCMPS Pressure on wound average value [2, 4]: 0.33
SFGCMPS Vocalization average value [2, 4]: 0.25
Total SFGCMPS average value [2, 4]: 1.92
SFGCMPS Attention to wound average value [2, 5]: 0.08
SFGCMPS Demeanour average value [2, 5]: 0.50
SFGCMPS Mobility average value [2, 5]: 0
SFGCMPS Posture/Activity average value [2, 5]: 0.08
SFGCMPS Pressure on wound average value [2, 5]: 0.42
SFGCMPS Vocalization average value [2, 5]: 0.25
Total SFGCMPS average value [2, 5]: 1.33
level of inflammation (VAS), compared with Placebo ([2]; 8 mg/kg oral D-1, 3 hours after surgery, p=0.021, Placebo greater): statistically significant differences
SFGCMPS Attention to wound average value [2, 6]: 0.08
SFGCMPS Demeanour average value [2, 6]: 0.17
SFGCMPS Mobility average value [2, 6]: 0
SFGCMPS Posture/Activity average value [2, 6]: 0
SFGCMPS Pressure on wound average value [2, 6]: 0.50
SFGCMPS Vocalization average value [2, 6]: 0
Total SFGCMPS average value [2, 6]: 0.75
SFGCMPS Attention to wound average value [2, 7]: 0
SFGCMPS Demeanour average value [2, 7]: 0
SFGCMPS Mobility average value [2, 7]: 0
SFGCMPS Posture/Activity average value [2, 7]: 0
SFGCMPS Pressure on wound average value [2, 7]: 0.67
SFGCMPS Vocalization average value [2, 7]: 0
Total SFGCMPS average value [2, 7]: 0.50
SFGCMPS Attention to wound average value [2, 8]: 0
SFGCMPS Demeanour average value [2, 8]: 0
SFGCMPS Mobility average value [2, 8]: 0
SFGCMPS Posture/Activity average value [2, 8]: 0
SFGCMPS Pressure on wound average value [2, 8]: 0.50
SFGCMPS Vocalization average value [2, 8]: 0
Total SFGCMPS average value [2, 8]: 0.50
AUC (primary efficacy variable) for the first 24 hours after surgery, compared with Placebo ([2]; 8 mg/kg oral D-1, difference not statistically significant (p=0.266)): almost half
SFGCMPS AUC0→8 h ([2]; 8 mg/kg oral D-1, first 8 hours after surgery): 8.0 ± 5.0
SFGCMPS AUC0→24 h ([2]; 8 mg/kg oral D-1, first 24 hours after surgery): 16.0 ± 15
AUC for the first 8 hours, compared with Placebo ([2]; 8 mg/kg oral D-1, p=0.033): statistically significant lower values
Total scores for SFGCMPS at each time point, compared with Placebo ([2]; 8 mg/kg oral D-1, significant only at 1.5, 3 and 5 hours): always lower
adverse events ([2]; 8 mg/kg oral D-1, whole study): No adverse events were observed
alleviation of pain and inflammation after soft tissue surgery (conclusion) ([2]; single dose of 8 mg/kg): effective in alleviating pain and inflammation
level of inflammation (VAS), compared with meloxicam ([3]; 8 mg/kg oral D-1, 3 h after surgery, p=0.025): lower values
assessment of global efficacy, compared with meloxicam ([3]; 8 mg/kg oral D-1, D7, p=0.7879): No differences were detected
SFGCMPS (AUC), primary efficacy variable, average value ([3]; initial 24 hours after orthopaedic surgery, E-6087 8 mg/kg oral D-1, meloxicam 0.2 mg/kg D0 then 0.1 mg/kg daily to D7): 95.50±57.70
